How the values were obtained:
Type in all cases: in vivo
[1] = tested on: Solanum nigrum (SOLNI); experiment: Test 1A glasshouse assay for herbicidal activity, post-emergence; conditions: 312 h, evaluated after 13 days, read-out: percentage phytotoxicity SOLNI
Procedure, shortened: (§1)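 Test plants grew from seed in standard soil under controlled glasshouse conditions (24/16 °C, 14 h light, 65% humidity) and received an aqueous acetone (50:50) spray with 0.5% Tween 20, either one day after sowing or after eight days. Damage was rated visually as percent phytotoxicity 13 days later.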

[2] = tested on: Ipomoea hederacea (IPOHE); experiment: as above; conditions: 312 h, evaluated after 13 days, read-out: percentage phytotoxicity IPOHE
Procedure, shortened: as §1

[3] = tested on: Brachiaria plantaginea (BRAPL); experiment: Test 1B glasshouse assay for herbicidal activity, post-emergence; conditions: Urochloa plantaginea; for pest or weed control at 60 g/ha: 60 g/ha application rate; for pest or weed control at 30 g/ha: 30 g/ha application rate
Procedure, shortened: (§2)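 Warm-climate glasshouse, 24/18° C., 16 h light, 65% humidity. Spray: IF50 (50 g/liter stock) in 0.2% v/v X-77; pre-emergence 1 day post-sowing, post-emergence ~12 days (10-13). Visual phytotoxicity 0-100%, at 15 DAA post, 20 DAA pre.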

[4] = tested on: Brachiaria plantaginea (BRAPL); experiment: Test 1B glasshouse assay for herbicidal activity, pre-emergence; conditions: Urochloa plantaginea, 480 h, 20 DAA, read-out: percentage phytotoxicity BRAPL
Procedure, shortened: as §2

[5] = tested on: Solanum nigrum (SOLNI); experiment: Test 1A glasshouse assay for herbicidal activity, pre-emergence; conditions: 312 h, evaluated after 13 days, read-out: percentage phytotoxicity SOLNI
Procedure, shortened: as §1

[6] = tested on: Ipomoea hederacea (IPOHE); experiment: as above; conditions: 312 h, evaluated after 13 days, read-out: percentage phytotoxicity IPOHE
Procedure, shortened: as §1

[7] = tested on: Echinochloa crus-galli (ECHCG); experiment: Biological Example 2 comparative herbicidal data, post-emergence glasshouse screen; conditions: 312 h, read-out: Post-emergence herbicidal activities (percentage phytotoxicity) ECHCG; for pest or weed control at 15.625 g/ha: 15.625 g/ha application rate; for pest or weed control at 62.5 g/ha: 62.5 g/ha application rate
Procedure, shortened: (§3)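 Plants grown 8 days in a glasshouse (24/16°C day/night, 14 h light, 65% humidity) were sprayed with compound in acetone/water (50:50) containing 0.5% Tween 20. They were kept under the same conditions and watered twice daily. Phytotoxicity was scored visually after 13 days (0 = no damage, 100 = total damage).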

[8] = tested on: Alopecurus myosuroides (ALOMY); experiment: as above; conditions: 312 h, read-out: Post-emergence herbicidal activities (percentage phytotoxicity) ALOMY; for pest or weed control at 15.625 g/ha: 15.625 g/ha application rate; for pest or weed control at 62.5 g/ha: 62.5 g/ha application rate
Procedure, shortened: as §3

[9] = tested on: Setaria faberi (SETFA); experiment: as above; conditions: 312 h, read-out: Post-emergence herbicidal activities (percentage phytotoxicity) SETFA; for pest or weed control at 15.625 g/ha: 15.625 g/ha application rate; for pest or weed control at 62.5 g/ha: 62.5 g/ha application rate
Procedure, shortened: as §3

With `CC#Cc1ccc(C2C(=O)C3CCC(C3)C2=O)c(C)c1` (single isomer, unassigned) [Compound A-2] the pest or weed control at 250 g/ha [1] was 20%, the pest or weed control at 250 g/ha [2] was 30% and the pest or weed control at 60 g/ha [3] was 100%. The pest or weed control at 500 g/ha [4] was 100%, the pest or weed control at 250 g/ha [5] was 0% and the pest or weed control at 250 g/ha [6] was 10%.
`Cc1cc(C#CCl)cc(C)c1C1C(=O)CC(CC2CCOCC2)CC1=O` (centres unmarked) [Compound A-8] showed a pest or weed control at 250 g/ha [1] of 80%, a pest or weed control at 250 g/ha [2] of 70% and a pest or weed control at 30 g/ha [3] of 90%. For the same compound, the pest or weed control at 15.625 g/ha [7] was 90%, the pest or weed control at 62.5 g/ha [7] was 100% and the pest or weed control at 15.625 g/ha [8] was 70%. The pest or weed control at 62.5 g/ha [8] was 80%, the pest or weed control at 15.625 g/ha [9] was 80% and the pest or weed control at 62.5 g/ha [9] was 90%. The pest or weed control at 250 g/ha [5] was 70% and the pest or weed control at 250 g/ha [6] was 30%.
Compound `CC#Cc1ccc(C2C(=O)C(C)(C)OC(C)(C)C2=O)c(C)c1` [Compound A-1] has a pest or weed control at 250 g/ha [1] of 30%, a pest or weed control at 250 g/ha [2] of 90% and a pest or weed control at 60 g/ha [3] of 90%. For the same compound, the pest or weed control at 15.625 g/ha [7] was 20%, the pest or weed control at 62.5 g/ha [7] was 90% and the pest or weed control at 15.625 g/ha [8] was 10%. It also gave a pest or weed control at 62.5 g/ha [8] of 80%, a pest or weed control at 15.625 g/ha [9] of 20% and a pest or weed control at 62.5 g/ha [9] of 40%. The pest or weed control at 500 g/ha [4] was 90%, the pest or weed control at 250 g/ha [5] was 0% and the pest or weed control at 250 g/ha [6] was 0%.
`Cc1cc(C#CCl)cc(C)c1C1C(=O)C2CCC(C2)C1=O` (centres unmarked) [Compound A-6] gave a pest or weed control at 62.5 g/ha ([1]; 62.5 g/ha) of 20%, a pest or weed control at 250 g/ha [1] of 20% and a pest or weed control at 62.5 g/ha ([2]; 62.5 g/ha) of 30%. For the same compound, the pest or weed control at 250 g/ha [2] was 20%, the pest or weed control at 30 g/ha [3] was 90% and the pest or weed control at 60 g/ha [3] was 100%. For the same compound, the pest or weed control at 15.625 g/ha [7] was 90%, the pest or weed control at 62.5 g/ha [7] was 100% and the pest or weed control at 15.625 g/ha [8] was 70%. It also gave a pest or weed control at 62.5 g/ha [8] of 70%, a pest or weed control at 15.625 g/ha [9] of 90% and a pest or weed control at 62.5 g/ha [9] of 90%. For the same compound, the pest or weed control at 125 g/ha ([4]; 125 g/ha) was 80%, the pest or weed control at 250 g/ha [5] was 20% and the pest or weed control at 250 g/ha [6] was 10%.
